In EP0146113A2, “Active agent and therapeutical composition for the treatment of deincephalon failures of nervous deseases and skin diseases” (Aderhold, Dieter, priority 1983, dated 1985):

What was measured:
[1] = Storage stability (loss of activity on storage); type: physicochemical
Method: (§1) Die Erfahrungen mit α-, β- und 4 -MSH bzw. dem erwähnten Tetrapeptid zeigen, daß diese Substanzen ausserordentlich empfindlich und labil sind. […] Bei der Verbindung des Tetrapeptides mit einer Depotsubstanz sollte eine Wirkungsdauer von 12-15 Stunden angestrebt werden.
(§2) Während die Halbwertzeit des reinen Tetrapeptides ca. 1 Woche beträgt, trat bei dem hergestellten Depotpräparat ein geringerer Wirkungsverlust als 10% pro Woche auf. Im Körper hält der Depoteffekt zwischen 6 - 12h an. Als Tagesdosis von dem Depotpräparat empfiehlt sich eine Menge von etwa 1 ml, was etwa 200 Mikrogramm entspricht.
Für das Depotpräparat ist keine gekühlte Lagerung mehr erforderlich.

[2] = Therapeutic use of melanotropin peptides, overall results (no method given); type: in vivo; details: general statement, treatment of diencephalon/hypophysis dysfunction, Multiple Sklerose
[3] = system: Patienten; assay: Long-term trial, subcutaneous application over 2 - 15 months in a series of patients (MS therapy); type: in vivo
Excerpt: Das Tetrapeptid His-Phe-Arg-Trp wurde in einem Langzeitversuch über 2 - 15 Monate hinweg einer Reihe von Patienten subkutan appliziert. Dabei wurden folgende Ergebnisse erhalten: • Zwei Drittel der Patienten hatten ein subjektives - aber durchaus auch objektivierbares - Gefühl der Frische, höheren Lebensmut und größerer Leistungsfähigkeit.
Verschiedene Anhaltspunkte machten deutlich, daß es sich nicht um einen Cortisoneffekt handelte.
Wenn ein bis zwei Tage lang nicht oder mit Placebos behandelt wurde, trat bei allen Patienten eine objektive Verschlechterung in Richtung der bisherigen Beschwerden auf; auch subjektiv waren alle Patienten eindrucksvoll in der Lage, anhand der Wirkung Spritzen mit Substanz von Placebos zu unterscheiden. Die richtige Dosierung des erfindungsgemäßen Mittels ist kritisch. Uberdosierungen machten sich in Form von erhöhtem Blutdruck, Hitzegefühl, Kurzatmigkeit und bei kreislauflabilen Patienten in deren typischen Beschwerden bemerkbar. Die normale Tagesdosis des Tentrapeptides zur MS-Therapie wurde auf etwa […] festgesetzt, in Einzelfällen - solange es ohne die obengenannten Uberdosierungsphänomene vertragen wird - höher bzw. im Sinne einer Erhaltungsdosis oder bei kreislauflabilen Patienten auch niedriger.

[4] = system: menschlichen Auges; assay: Eye drops, effect on vision; type: in vivo, Patienten
Excerpt: Diese Fähigkeit zeigte insbesondere das Tetrapeptid His-Phe-Arg-Trp.
Es wurden täglich ca. 2pg pro Auge des Tetrapeptides in physiologischer Kochsalzlösung in der Form von Augentropfen verabreicht. Dabei wurden die vorstehend erwähnten Erfolge erzielt.

[5] = Duration of effect in the body; type: in vivo; details: without depot substance
Method: as §1, §2

[6] = system: Patienten; assay: Subcutaneous injection of the chemically pure substances in a series of patients; type: in vivo; details: subkutan
Excerpt: Es wurden ferner die chemisch reinen Substanzen α -MSH und ß -MSH subkutan bei einer Reihe von Patienten gespritzt.

[7] = Comparative trials with peptides of six, four or two amino acids of the chain Met-Glu-His-Phe-Arg-Trp-Gly; type: in vivo
Method: Die Wirkung von etwa 0,3 mg <-MSH entsprach etwa der Wirkung von 0,1 mg dieses Tetrapeptides.

[8] = Augentropfen in physiologischer Kochsalzlösung, daily

Row | Compound | Lagerfähigkeit ([1]; als Reinsubstanz tiefgekühlt) | Loss of Wirksamkeit ([1]; in destilliertem Wasser gelöst, bei Kühlschranktemperatur aufbewahrt) | Halbwertzeit ([1]; pure tetrapeptide, storage) | Ergebnisse [2] | Tolerability together with Cortison ([3]; in vivo) | Krankheitsbild (course) ([3]; subkutan, 2 - 15 Monate) | Reports of individual patients ([3]; subkutan, 2 - 15 Monate) | Share of patients with Gefühl der Frische, höheren Lebensmut und größerer Leistungsfähigkeit ([3]; subkutan, 2 - 15 Monate) | Spastik ([3]; subkutan, 2 - 15 Monate) | Absetzen von Cortison ([3]; withdrawal of Cortison under the tetrapeptide) | Fähigkeit des Patienten in bezug auf die Zusammensetzung von bewegten Bildern [4, 8] | Wahrnehmung von Lichtreizen [4, 8] | Sehfähigkeit des menschlichen Auges ([4]; in vivo) | Loss of effect im Körper [5] | Wirkung (comparison between the substances) ([6]; patients) | Equally effective amount (Wirkung entsprach) ([7]; amounts of the two substances with about the same effect) | Positivwirkung und Negativwirkung ([7]; comparison among peptides of the seven-residue chain) | kurzzeitiger Besserungseffekt (Kräftigung, Frischegefühl) ([6]; time to onset, at first application possibly only after one to two days)
1 | N=C(N)NCCC[C@H](NC(=O)[C@H](Cc1ccccc1)NC(=O)[C@@H](N)Cc1cnc[nH]1)C(=O)N[C@@H](Cc1c[nH]c2ccccc12)C(=O)O [Tetrapeptid His-Phe-Arg-Trp, His-Phe-Arg-Trp] | lagerfähig | etwa die Hälfte | ca. 1 Woche | besten Ergebnisse | gut nebeneinander vertragen | keine Verschlechterungen des Krankheitsbildes auf, sondern einige nachweisbare Verbesserungen | Normalisierung des (bisher zu niedrigen) Blutdrucks, bessere Durchblutung und Beweglichkeit der Extremitäten, Wiederherstellung des Tag-Nacht-Rhythmus (keine Schlafstörungen mehr), bessere Sehfähigkeit, Normalisierung des Zyklus, Minderung von Gleichgewichtsstörungen | Zwei Drittel | starkes Nachlasen der Spastik | wesentlich erleichtert und ohne Rückschläge oder Komplikationen beschleunigt | wesentlich verbessert | stabilisiert | Verbesserung der Sehfähigkeit | innerhalb kurzer Zeit | im wesentlichen die gleiche Wirkung wie α -MSH und β-MSH | ~0,1 mg | stärksten Positivwirkung und der schwächsten Negativwirkung | 
2 | β -Melanotropin [ß -MSH] |  |  |  |  |  |  |  |  |  |  |  |  |  |  |  |  |  | innerhalb der ersten Stunde
